Laboratory results published in patent EP0429522B1, “PHOSPHOSUGAR-BASED ANTI-INFLAMMATORY AND/OR IMMUNOSUPPRESSIVE DRUGS” (THE AUSTRALIAN NATIONAL UNIVERSITY, priority 1988, dated 1990).

Key:
[1] = system: Adoptively Transferred EAE; test: Inhibition of adoptively transferred EAE (clinical signs), phosphosugar delivered by subcutaneous mini-osmotic pumps; assay type: in vivo, Lewis rats; settings: for Disease Severity (%Control): product of mean clinical score and mean length disease; for inhibition of EAE (result in words): summary of Tables I, III and IV
Protocol: In this Example, a number of phosphosugars and one phospho-polysaccharide were tested for their ability to inhibit development of EAE in rats. (All phosphosugars tested are commercially available and were obtained from Sigma Chemical Co., St. Louis, MO, U.S.A.). Experimental details are included in the footnotes to the Tables setting out the test results.
Thus, although 7/10 animals treated with mannose-6-phosphate developed some clinical signs of disease (Table III) the severity of these disease symptoms was extremely mild compared with untreated animals, i.e., <10% disease severity of controls when clinical scores and duration of disease are examined. In this sense, the mannose-6-phosphate data in Tables I and III are almost identical. […]
In these experiments, details of which were as in Table I, the number of cells transferred was 25x10⁶/rat, while the dose of compound administered was 10mg/rat delivered over a 7 day period by mini-osmotic pumps, commencing on day 3 after cell transfer.

[2] = system: Passive Adjuvant Arthritis; test: Suppression of passive adjuvant arthritis (foot size); assay type: in vivo, (DA x Lew)Fl rats; settings: 6mg/rat/day by miniosmotic pumps for 14 days
Protocol: (DA x Lew)Fl rats were immunized with M.butyricum in light mineral oil given in each foot. Ten days later spleens were removed and incubated as single cell suspension tissue culture medium in + 5µg/ml ConA for 75 hrs. Cells were harvested, washed and transferred i.v. at 65 x 10⁶ cells/rat into (DA x Lew)F recipients.
Treated rats were implanted on the day they received cells with miniosmotic pumps which delivered 6mg/rat/day of mannose-6- phosphate for 14 days. Control rats were sham operated. The results are shown in Table VII as % of pre-cell injection foot size. {Average for group; n=4 (mannose-6-phosphate); n=6 (control)}.

EAE = test: Histological analysis of spinal cord inflammatory lesions in EAE rats; assay type: in vivo; settings: for No.Lesions: lower thoracic-upper lumbar spinal cord sections, treated as in Table I; for No.Lesions / Lesions/section: 9 days after cell transfer; for Lesions/section: spinal cord sections
Source text: Such data are consistent with the view that the sugars are inhibiting entry of leukocytes into the CNS.

[3] = system: Delayed-Type Hypersensitivity (DTH); test: Delayed-type hypersensitivity (DTH) footpad swelling after sheep red blood cell challenge; assay type: in vivo, C57Bl mice; settings: 24 hours after challenge; 0.15mg i/p per injection, 7 injections at approx. 3½ hour intervals
Protocol: C57Bl mice were sensitised by i.v. injection 10⁵ of washed sheep red blood cells. 5 days later they were challenged in the right hind footpad with SRBC. Each mouse was given a 0.25ml injection i/p at the same time of either saline, mannose-6-phosphate or the 1,2,3,4-tetraacetate of mannose-6-phosphate and all injections were repeated a further 6 times at approx. 3½ hour intervals. The dose in each injection of mannose-6- phosphate was 0.15mg and of 1,2,3,4-tetra-O-acetyl derivative of mannose-6-phosphate was also 0.15mg. At 24 hours after challenge the DTH swelling was measured.

[4] = Table III, experimental details as in Table I
[5] = Table II, dose 10 mg over 7 days
[6] = Table II, dose 20 mg over 7 days
[7] = Table II, dose 40 mg over 7 days

Q: Which “Mean Clinical Score” value [1, 4] does the source give for `O=C(COP(=O)(O)O)[C@@H](O)[C@H](O)[C@H](O)CO` [Fructose-1-phosphate, fructose-1-phosphate] here?
A: Its value is 1.2.

Q: What about the “Mean Day Onset” value [1, 4] of the same compound?
A: Its value is 5.5.

Q: What about the “Mean Length Disease” value [1, 4] of the same compound?
A: Its value is 1.6 days.

Q: What about the “No.with EAE/Total” value [1, 4] of the same compound?
A: The value was 3/5.

Q: What about the “Disease Severity (%Control)” value ([1]; Table III) of the same compound?
A: Its value is 12.6%.

Q: What about the “inhibition of EAE (result in words)” value [1] of the same compound?
A: The value was “as effective as mannose-6-phosphate at inhibiting disease”.

Q: With `O=C(COP(=O)(O)O)[C@@H](O)[C@H](O)[C@H](O)COP(=O)(O)O` [Fructose-1,6-diphosphate, fructose-1,6-diphosphate] as the compound, how does the “Mean Clinical Score” value [1, 4] read?
A: Its value is 2.4.

Q: And the “Mean Day Onset” value [1, 4]?
A: The value was 5.4.

Q: What about the “Mean Length Disease” value [1, 4] of the same compound?
A: The value was 3.4 days.

Q: And the “No.with EAE/Total” value [1, 4]?
A: Its value is 5/5.

Q: What about the “Disease Severity (%Control)” value ([1]; Table III) of the same compound?
A: Its value is 54.0%.

Q: And the “inhibition of EAE (result in words)” value [1]?
A: The value was “partially inhibitory”.

Q: `O=P(O)(O)OC[C@H]1OC(O)[C@@H](O)[C@@H](O)[C@@H]1O` (some centres unmarked) [Mannose-6-phosphate, mannose-6-phosphate] was tested. Which “% of pre-cell injection foot size” value ([2]; Day 4, group average n=4) did it give?
A: The value was 97.3%.

Q: What about the “% of pre-cell injection foot size” value ([2]; Day 6, n=4) of the same compound?
A: Its value is 105.8%.

Q: And the “% of pre-cell injection foot size” value ([2]; Day 7, n=4)?
A: Its value is 102.8%.

Q: And the “% of pre-cell injection foot size” value ([2]; Day 9, n=4)?
A: The value was 108.4%.

Q: And the “% of pre-cell injection foot size” value ([2]; Day 11, n=4)?
A: Its value is 107.6%.

Q: And the “% of pre-cell injection foot size” value ([2]; Day 14, n=4)?
A: The value was 117.4%.

Q: What about the “CNS lesions (result in words)” value (EAE; text summary of Table V) of the same compound?
A: Its value is “No lesions were detected”.

Q: What about the No.Lesions (EAE; treated rat 1) of the same compound?
A: The No.Lesions was 0.

Q: What about the Lesions/section (EAE; treated rat 1) of the same compound?
A: The Lesions/section was 0.

Q: And the No.Lesions (EAE; treated rat 2)?
A: The No.Lesions was 0.

Q: And the Lesions/section (EAE; treated rat 2)?
A: The Lesions/section was 0.

Q: And the “Mean Length Disease” value ([1]; Table I, 40 mg/rat over 7 days)?
A: Its value is 0 days.

Q: What about the “Mean Day Onset” value ([1]; Table I, 40 mg/rat over 7 days, s.c. pumps from day 3) of the same compound?
A: The value was 0.

Q: And the “Mean Clinical Score” value ([1]; Table I, 40 mg/rat over 7 days, score 0-5)?
A: Its value is 0.

Q: And the “No.with EAE/Total” value ([1]; Table I, 30 x 10⁶ ConA activated EAE effector cells, 40 mg/rat over 7 days, s.c. pumps from day 3)?
A: Its value is 0/8.

Q: And the “Mean Clinical Score” value [1, 5]?
A: The value was 1.8.

Q: What about the “Mean Day Onset” value [1, 5] of the same compound?
A: Its value is 5.0.

Q: And the “Mean Length Disease” value [1, 5]?
A: The value was 3.3.

Q: And the “No.with EAE/Total” value [1, 5]?
A: Its value is 4/4.

Q: And the “Disease Severity (%Control)” value ([1]; Table II, dose 10 mg over 7 days, listed as Mannose-6-Phosphate)?
A: Its value is 37.7%.

Q: And the “Disease Severity (%Control)” value ([1]; Table II, dose 10 mg over 7 days, listed as mannose-6-phosphate)?
A: Its value is 37.7%.

Q: What about the “Mean Clinical Score” value [1, 6] of the same compound?
A: Its value is 1.5.

Q: And the “Mean Day Onset” value [1, 6]?
A: Its value is 5.0.

Q: What about the “Mean Length Disease” value [1, 6] of the same compound?
A: Its value is 3.0.

Q: What about the “No.with EAE/Total” value [1, 6] of the same compound?
A: The value was 4/4.

Q: And the “Disease Severity (%Control)” value [1, 6]?
A: Its value is 28.6%.

Q: And the “Mean Clinical Score” value [1, 7]?
A: The value was 0.3.

Q: What about the “Mean Day Onset” value [1, 7] of the same compound?
A: The value was 5.0.

Q: And the “Mean Length Disease” value [1, 7]?
A: The value was 0.7.

Q: And the “No.with EAE/Total” value [1, 7]?
A: The value was 1/3.

Q: And the “Disease Severity (%Control)” value [1, 7]?
A: The value was 1.7%.

Q: And the “Mean Clinical Score” value [1, 4]?
A: The value was 0.9.

Q: What about the “Mean Day Onset” value [1, 4] of the same compound?
A: Its value is 6.0.

Q: And the “Mean Length Disease” value [1, 4]?
A: The value was 1.5 days.

Q: And the “No.with EAE/Total” value [1, 4]?
A: Its value is 7/10.

Q: And the “Disease Severity (%Control)” value ([1]; Table III)?
A: Its value is 8.9%.

Q: And the “Disease Severity (%Control)” value ([1]; Table III, listed as mannose-6-phosphate)?
A: Its value is < 10%.

Q: And the “inhibition of EAE (result in words)” value [1]?
A: The value was “totally inhibited development of disease”.

Q: And the “reduction of DTH swelling as compared with the saline controls” value [3]?
A: Its value is 52.5%.

Q: Which results are given for `O=P(O)(O)OC[C@H]1OC(O)[C@H](O)[C@@H](O)[C@@H]1O` (some centres unmarked) [Glucose-6-phosphate, glucose-6-phosphate]?
A: Mean Clinical Score [1, 4]: 2.0; Mean Day Onset [1, 4]: 5.4; Mean Length Disease [1, 4]: 3.8 days; No.with EAE/Total [1, 4]: 5/5; Disease Severity (%Control) ([1]; Table III): 50.3%; inhibition of EAE (result in words) [1]: partially inhibitory

Q: For “1,2,3,4-tetra-O-acetyl derivative of mannose-6-phosphate”, which “reduction of DTH swelling as compared with the saline controls” value [3] is on record?
A: Its value is 91.5%.

Q: What does the source list for `O=C(CO)[C@@H](O)[C@H](O)[C@H](O)COP(=O)(O)O` [Fructose-6-phosphate]?
A: Mean Clinical Score [1, 4]: 1.6; Mean Day Onset [1, 4]: 6.0; Mean Length Disease [1, 4]: 2.4 days; No.with EAE/Total [1, 4]: 4/5; Disease Severity (%Control) ([1]; Table III): 25.4%; inhibition of EAE (result in words) [1]: comparatively effective inhibitor of EAE

Q: For “6-phospho-mannose-α(1-3)-{mannose-α-(1-3)}₂-mannose-α-(1-2)-mannose [Pentasaccharide]”, which EAE/Total ([1]; Table VI, 25x10⁶ cells/rat, 10mg/rat over 7 days by mini-osmotic pumps from day 3) is on record?
A: Its EAE/Total is 1/5.

Q: For `OC[C@H]1OC(O)[C@@H](O)[C@@H](O)[C@@H]1O` (stereo partly drawn) [D-mannose, reference compound], which “Mean Clinical Score” value [1, 4] is on record?
A: Its value is 2.9.

Q: And the “Mean Day Onset” value [1, 4]?
A: The value was 5.2.

Q: What about the “Mean Length Disease” value [1, 4] of the same compound?
A: The value was 4.4 days.

Q: And the “No.with EAE/Total” value [1, 4]?
A: The value was 5/5.

Q: And the “Disease Severity (%Control)” value ([1]; Table III)?
A: The value was 84.5%.

Q: What about the “inhibition of EAE (result in words)” value [1] of the same compound?
A: The value was “little or no effect on disease progression”.

Q: For Glucose-1-phosphate, which “Mean Clinical Score” value [1, 4] is on record?
A: The value was 3.0.

Q: And the “Mean Day Onset” value [1, 4]?
A: The value was 5.2.

Q: And the “Mean Length Disease” value [1, 4]?
A: Its value is 3.8 days.

Q: And the “No.with EAE/Total” value [1, 4]?
A: The value was 5/5.

Q: And the “Disease Severity (%Control)” value ([1]; Table III)?
A: Its value is 75.5%.

Q: And the “inhibition of EAE (result in words)” value [1]?
A: The value was “little or no effect on disease progression”.

Q: What does the source list for `O=P(O)(O)OC[C@H]1OC(O)[C@H](O)[C@@H](O)[C@H]1O` (some centres unmarked) [Galactose-6-phosphate, galactose-6-phosphate]?
A: Mean Clinical Score [1, 4]: 2.0; Mean Day Onset [1, 4]: 5.2; Mean Length Disease [1, 4]: 3.0 days; No.with EAE/Total [1, 4]: 5/5; Disease Severity (%Control) ([1]; Table III): 40.5%; inhibition of EAE (result in words) [1]: partially inhibitory
